Data taken from US20080045419A1, “Screening Assay” (priority 2006, published 2008).
“Also recorded” adds a separate entry of the source.

System: Rad17 self-interaction (Rad17/Rad17)
Test: DIPI assay (DNA-damage-induced increased protein interaction), two-hybrid colony growth on -His medium
Assay type: cell-based, Saccharomyces cerevisiae
Settings: for Rad17 self-interaction response in DIPI assay (colony growth on -His medium): wild-type reporter strain CG1945, pCAD1-Rad17/pGBT9-Rad17, plate assay
Text: A reporter strain is co-transformed with Rad17-Gal4-DNA-binding-domain and Rad17-Gal4-transcriptional-activation-domain fusions (“bait” and “prey” plasmids). Enhanced protein-protein interaction is visualized by activation of a Gal4responsive chromosomal reporter gene construct required for histidine synthesis (HIS3) (FIG. 1).
These cells are exposed to a DNA-damaging agent in form of a gradient on a histidine-omission plate. […] It should also be mentioned that the use of a blue color marker (LacZ gene) is possible. It is not unusual that the context of a promoter affects the specific interaction and may be easily addressed by switching to one of a wide variety or readily available commercial and non-commercial expression systems.
[pCAD1-Rad17/pGBT9-Rad17], respectively. […] Responses in a wild-type reporter strain (WT, left two plates) and a mutant deleted for topoisomerase I (top1δ, right) are compared. Cells of the reporter strain (CG1945), previously co-transformed with Rad17 bait/prey Gal4-fusions (pCAD1-Rad17/pGBT9-Rad17) were plated as indicated. The genotoxic agent CPT or DMSO (solvent control) was applied on a filter paper.
Using manual replicating on large petri dishes, these were transferred to -His plates that had been inoculated with cells of a reporter strain, co-transformed with Rad17 bait/prey plasmids as described.
DIPI assay was performed in a high-throughput mode. The Petri dish assay was adapted to the 96 well plate format in order to use conventional high-throughput machinery. Two protocols were explored (FIG. 4). In both cases, the selective agar medium lacking leucine, tryptophan and histidine was poured in the plate wells. In protocol 1, cell suspension was pipeted on top of the plate and, after drying, a sample of CPT. In protocol 2, cells were mixed with agar and pipeted, resulting in a cell-containing agar layer. CPT was added on top. After 3-4 days, the plates were evaluated for colony growth.
All cells will be exposed to a CPT concentration that leads to some low amount of colony formation on selective medium. Briefly, the haploid two-hybrid reporter strain CG1945 (4) is co-transformed with plasmids pGBT9Rad17 and pCAD1-Rad17. […] The selected co-transformant is grown up to stationary phase in yeast synthetic medium (SM) without tryptophan and leucine to retain both plasmids. Incubation period is typically two days at 30° C. with shaking. The standard recipe for yeast SM calls for 2% dextrose, 0.67% yeast nitrogen base with ammonium sulfate/without amino acids (e.g. from US Biological) and a -Trp-Leu amino acid dropout mix (Qbiogene, Inc.).

Row | SMILES | Rad17 self-interaction response in DIPI assay (colony growth on -His medium) | number of colonies in DIPI assay, 96 well plate format (96 well plate, after 3-4 days, compared to control (DMSO), listed as CPT) | Rad17 homomeric interaction response in DIPI assay (top1δ background (topoisomerase I deleted)) | Rad17 self-interaction response in DIPI assay (colony growth on -His medium) (listed as CPT)
1 | CC[C@@]1(OC(=O)CN)C(=O)OCc2c1cc1n(c2=O)Cc2cc3ccccc3nc2-1.Cl [NSC606985, glycine 4-ethyl-3,4,12,14-tetrahydro-3,14-dioxo-1H-pyrano[3′, 4′:6,7]indolizino[1,2-b]quinolin-4-yl ester, (S)-monohydrochloride] | increasing Rad17 self-interaction |  |  | 
2 | CC[C@@]1(O)C(=O)OCc2c1cc1n(c2=O)Cc2cc3ccccc3nc2-1 [camptothecin] | very responsive; also recorded: increasing Rad17 self-interaction | number of colonies increased significantly; also recorded: number of colonies is increased | absence of increased homomeric Rad17 interaction | positive CPT response
